{"source": "ChEMBL document CHEMBL1201862", "about": "“PubChem BioAssay data set” (2004)", "key": {"[1]": {"assay": "Luminescence Cell-Based Dose Retest to Confirm Inhibitors of Cancer Stem Cells. [Related pubchem assays (depositor defined):AID2717, AID2721]", "type": "functional, Homo sapiens", "settings": "Homo sapiens"}, "Vero": {"tested_on": "Vero", "assay": "cells", "type": "functional", "settings": "Chlorocebus sabaeus"}, "[2]": {"assay": "microbe, parasite or virus in culture", "type": "functional", "settings": "Mycobacterium tuberculosis"}, "[3]": {"biological_target": "T1, Rac GTPase-activating protein 1 (Homo sapiens, UniProt Q9H0H5)", "T1 sequence (Q9H0H5 whole entry)": "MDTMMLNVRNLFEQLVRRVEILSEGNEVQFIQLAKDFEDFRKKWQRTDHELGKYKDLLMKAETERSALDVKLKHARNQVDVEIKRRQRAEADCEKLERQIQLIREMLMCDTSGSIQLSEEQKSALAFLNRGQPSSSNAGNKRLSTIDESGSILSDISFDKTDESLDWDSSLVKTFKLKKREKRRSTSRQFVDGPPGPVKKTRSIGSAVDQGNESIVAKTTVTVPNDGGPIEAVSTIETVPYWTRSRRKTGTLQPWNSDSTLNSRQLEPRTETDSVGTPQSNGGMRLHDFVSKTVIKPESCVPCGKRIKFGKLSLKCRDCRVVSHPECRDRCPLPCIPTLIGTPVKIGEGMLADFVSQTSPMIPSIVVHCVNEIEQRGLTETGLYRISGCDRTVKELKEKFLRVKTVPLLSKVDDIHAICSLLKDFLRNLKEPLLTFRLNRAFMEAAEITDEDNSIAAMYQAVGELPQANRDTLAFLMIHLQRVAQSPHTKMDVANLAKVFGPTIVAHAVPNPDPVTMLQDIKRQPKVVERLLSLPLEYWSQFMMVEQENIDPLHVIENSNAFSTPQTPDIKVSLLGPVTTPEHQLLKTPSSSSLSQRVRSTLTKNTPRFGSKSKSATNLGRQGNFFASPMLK", "assay": "blockers of MgcRacGAP-driven Rac1 GTP hydrolysis – biochemical, ADP Hunter fluorescence, primary and confirmatory, confirmation (AID 624330)", "type": "functional"}, "[4]": {"biological_target": "T2, Ubiquitin-conjugating enzyme E2 N (Homo sapiens, UniProt P61088)", "T2 sequence (P61088 whole entry)": "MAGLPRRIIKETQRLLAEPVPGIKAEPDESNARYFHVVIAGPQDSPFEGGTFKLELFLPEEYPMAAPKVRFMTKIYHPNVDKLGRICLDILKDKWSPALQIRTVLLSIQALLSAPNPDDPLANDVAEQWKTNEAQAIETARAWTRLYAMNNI", "type": "functional"}, "[5]": {"assay": "Vero E6 cell cytotoxicity, dose response, cytotoxicity control for non-replicating M. tuberculosis project, secondary assay (AID 492998)", "type": "functional, VeroE6", "settings": "Vero C1008"}, "[6]": {"assay": "THP-1 cell cytotoxicity, dose response, cytotoxicity control for non-replicating M. tuberculosis project (AID 489025)", "type": "functional"}, "cells": {"assay": "cells", "type": "functional"}, "[7]": {"assay": "blockers of HIV-1 envelope-mediated cell-cell fusion – cherry-pick, dose response (AID 652057)", "type": "functional, cell-based"}, "[8]": {"assay": "Trypanosoma cruzi growth suppression in host cells – NIH3T3 host cells, beta-gal luminescence, confirmation (AID 2044);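 also: luminescent beta-galactosidase reporter signal from transgenic T. cruzi replicating inside host cells; inhibitors lower the luminescence signal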", "type": "functional, cell-based"}, "INS1": {"tested_on": "INS1", "assay": "INS-1E survival protection against cytokine death – cell-based, luminescence, retest, dose response (AID 449756);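 also: cell death triggered by IL-1 beta plus TNF-alpha plus IFN-gamma mixture; protective hits raise ATP signal compared with cytokine alone wells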", "type": "functional", "settings": "Rattus norvegicus"}, "[9]": {"assay": "HEK-293T cell viability reduction – luminescence, B-cell screen hits, cytotoxicity control for BCR NF-kB inhibitor project, dose response (AID 489021);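 also: HEK-293T cells carrying an NF-kB luciferase reporter; cells exposed to compound for about 14 hours before viability readout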", "type": "functional, cell-based"}, "[10]": {"assay": "NIH3T3 cell viability loss – ATP luminescence, mouse fibroblasts, counter-screen, dose response (AID 2010);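 also: cells exposed to compound for about 90 hours before reading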", "type": "functional, cell-based", "settings": "NIH3T3"}, "[11]": {"biological_target": "T3, Replicative DNA helicase DnaB (Mycobacterium tuberculosis, UniProt P9WMR3)", "T3 sequence (P9WMR3 whole entry)": "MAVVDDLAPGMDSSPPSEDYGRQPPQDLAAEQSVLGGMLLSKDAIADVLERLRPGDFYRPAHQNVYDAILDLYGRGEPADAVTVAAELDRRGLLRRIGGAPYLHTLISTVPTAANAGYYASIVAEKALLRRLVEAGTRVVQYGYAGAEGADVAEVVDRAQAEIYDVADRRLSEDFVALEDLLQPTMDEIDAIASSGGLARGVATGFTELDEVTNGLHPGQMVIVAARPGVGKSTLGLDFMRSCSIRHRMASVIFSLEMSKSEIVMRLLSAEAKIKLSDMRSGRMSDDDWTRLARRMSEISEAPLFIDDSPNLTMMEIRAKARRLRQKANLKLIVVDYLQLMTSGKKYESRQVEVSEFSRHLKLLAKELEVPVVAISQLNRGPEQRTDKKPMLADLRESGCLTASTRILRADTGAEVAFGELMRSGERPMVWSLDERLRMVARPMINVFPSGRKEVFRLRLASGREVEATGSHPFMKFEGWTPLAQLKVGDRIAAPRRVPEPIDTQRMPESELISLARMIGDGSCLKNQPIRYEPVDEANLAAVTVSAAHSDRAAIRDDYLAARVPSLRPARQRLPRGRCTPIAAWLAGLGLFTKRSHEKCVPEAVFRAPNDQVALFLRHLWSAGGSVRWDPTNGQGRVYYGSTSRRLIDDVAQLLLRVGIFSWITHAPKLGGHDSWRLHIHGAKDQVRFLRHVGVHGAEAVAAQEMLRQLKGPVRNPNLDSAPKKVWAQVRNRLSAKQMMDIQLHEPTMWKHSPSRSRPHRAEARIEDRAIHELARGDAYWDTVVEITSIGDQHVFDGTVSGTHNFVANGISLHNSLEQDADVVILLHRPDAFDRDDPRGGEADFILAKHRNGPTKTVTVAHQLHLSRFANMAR", "assay": "DnaB intein splicing inhibitors, dose response, biochemical, cell-free fluorescence (AID 449749)", "type": "functional"}, "Protein RecA": {"biological_target": "T4, Protein RecA (Mycobacterium tuberculosis, UniProt P9WHJ3)", "T4 sequence (P9WHJ3 whole entry)": "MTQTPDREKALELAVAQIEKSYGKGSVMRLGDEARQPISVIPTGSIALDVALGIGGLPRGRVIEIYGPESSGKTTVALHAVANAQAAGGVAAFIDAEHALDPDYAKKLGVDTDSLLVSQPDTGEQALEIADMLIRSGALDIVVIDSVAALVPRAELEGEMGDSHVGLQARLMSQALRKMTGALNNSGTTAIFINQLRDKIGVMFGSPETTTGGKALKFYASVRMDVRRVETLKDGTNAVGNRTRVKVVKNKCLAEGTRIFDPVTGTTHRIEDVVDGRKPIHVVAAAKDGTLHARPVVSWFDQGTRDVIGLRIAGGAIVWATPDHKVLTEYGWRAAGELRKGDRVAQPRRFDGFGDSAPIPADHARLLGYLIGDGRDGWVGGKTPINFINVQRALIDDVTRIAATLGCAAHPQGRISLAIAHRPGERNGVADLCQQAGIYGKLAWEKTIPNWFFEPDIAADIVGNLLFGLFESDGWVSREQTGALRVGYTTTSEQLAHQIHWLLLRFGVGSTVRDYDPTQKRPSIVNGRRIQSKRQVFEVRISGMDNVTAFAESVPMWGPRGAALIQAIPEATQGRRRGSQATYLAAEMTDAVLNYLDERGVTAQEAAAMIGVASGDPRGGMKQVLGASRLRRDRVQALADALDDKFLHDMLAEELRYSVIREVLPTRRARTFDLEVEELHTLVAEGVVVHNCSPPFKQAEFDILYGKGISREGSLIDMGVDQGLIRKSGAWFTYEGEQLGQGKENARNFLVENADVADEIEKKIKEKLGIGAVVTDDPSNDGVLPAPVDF", "assay": "Fluorescence Cell-Free Homogeneous Dose Retest to Identify Inhibitors of RecA-Intein Splicing Activity. [Related pubchem assays (depositor defined):AID2097, AID2223, AID489010, AID492950]", "type": "functional"}, "[12]": {"biological_target": "T5, DNA repair protein RAD52 homolog (Homo sapiens, UniProt P43351)", "T5 sequence (P43351 whole entry)": "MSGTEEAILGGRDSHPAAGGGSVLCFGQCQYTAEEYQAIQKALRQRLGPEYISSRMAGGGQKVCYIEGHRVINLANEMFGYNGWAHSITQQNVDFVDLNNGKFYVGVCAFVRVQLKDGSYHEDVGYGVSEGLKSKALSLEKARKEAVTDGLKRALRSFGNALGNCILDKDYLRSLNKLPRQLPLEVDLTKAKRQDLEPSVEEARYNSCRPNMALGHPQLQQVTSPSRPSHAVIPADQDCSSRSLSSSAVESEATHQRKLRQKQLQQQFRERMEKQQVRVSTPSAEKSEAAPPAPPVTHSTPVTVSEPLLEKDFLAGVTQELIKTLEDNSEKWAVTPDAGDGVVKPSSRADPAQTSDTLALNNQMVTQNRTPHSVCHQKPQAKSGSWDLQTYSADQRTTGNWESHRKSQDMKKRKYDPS", "type": "functional, biochemical"}, "[13]": {"biological_target": "Induced myeloid leukemia cell differentiation protein Mcl-1 (Homo sapiens, UniProt Q07820)", "sequence (Q07820 whole entry)": "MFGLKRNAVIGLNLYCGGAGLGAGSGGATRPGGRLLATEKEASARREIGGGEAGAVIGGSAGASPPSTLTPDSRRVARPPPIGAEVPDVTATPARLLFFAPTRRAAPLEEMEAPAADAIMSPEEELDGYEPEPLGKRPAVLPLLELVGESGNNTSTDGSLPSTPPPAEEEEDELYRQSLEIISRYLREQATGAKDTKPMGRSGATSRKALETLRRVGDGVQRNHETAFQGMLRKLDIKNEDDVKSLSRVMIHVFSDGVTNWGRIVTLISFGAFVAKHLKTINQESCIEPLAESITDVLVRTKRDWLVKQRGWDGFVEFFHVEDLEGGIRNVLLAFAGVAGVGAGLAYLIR", "type": "functional"}}, "note": "Activity calls are given as the source filed them."}
{"smiles": "CC(C)C[C@H](NC(=O)c1[nH]cnc1C(=O)NC(c1ccccc1)c1ccccc1)C(=O)OC(C)(C)C", "values": [{"measurement": "AC50", "setting": "[1]", "value": "3.44 µM (active)"}, {"measurement": "CC50", "setting": "Vero", "value": "19.3 µM (active)"}]}
{"smiles": "C=CCOc1ccc(C2C(C#N)=C(N)N(Nc3ccccc3)C3=C2C(=O)CC(C)(C)C3)cc1OC", "note": "(configuration not stated)", "values": [{"measurement": "CC50", "setting": "[2]", "value": "35.8 µM (active)"}]}
{"smiles": "CN1CCN(c2ccc(N)c(N3CCN(C)CC3)c2)CC1", "values": [{"measurement": "IC50", "setting": "[3]", "value": "33.3 µM (active)"}, {"measurement": "IC50", "setting": "[4]", "value": "> 20 µM (inactive)"}]}
{"smiles": "COc1ccccc1NC(=O)CNC(=O)CC12CC3CC(CC(C3)C1)C2", "values": [{"measurement": "IC50", "setting": "[4]", "value": "> 20 µM (inactive)"}]}
{"smiles": "C[C@H](NC(=O)c1[nH]cnc1C(=O)Nc1ccccc1)C(=O)OC(C)(C)C", "values": [{"measurement": "CC50", "setting": "[5]", "value": "> 20 µM (active)"}, {"measurement": "CC50", "setting": "[6]", "value": "> 40 µM (active)"}, {"measurement": "IC50", "setting": "cells", "value": "8.07 µM (active)"}]}
{"smiles": "CCC(=O)N(C)C[C@H]1Oc2cc(/C=C/c3ccccc3)ccc2S(=O)(=O)N([C@@H](C)CO)C[C@H]1C", "values": [{"measurement": "AC50", "setting": "[7]", "value": "20.7 µM (active)"}]}
{"smiles": "CNC(=O)c1ccccc1NC(=O)c1cccc(S(=O)(=O)N2CCC(C)CC2)c1", "values": [{"measurement": "IC50", "setting": "[4]", "value": "> 20 µM (inactive)"}]}
{"smiles": "CCN(CC)CCOCCOc1ccc(Cl)c2ccccc12", "values": [{"measurement": "CC50", "setting": "Vero", "value": "> 25 µM (active)"}]}
{"smiles": "CSc1ccc(C(=O)/C=C/c2ccc(N)cc2)cc1", "values": [{"measurement": "CC50", "setting": "Vero", "value": "18.7 µM (active)"}]}
{"smiles": "Cc1ccc(-c2cn3c([n+]2-c2ccccc2)SCC3)cc1", "values": [{"measurement": "EC50", "setting": "[8]", "value": "0.282 µM (active)"}, {"measurement": "AC50", "setting": "INS1", "value": "3.11 µM (active)"}, {"measurement": "IC50", "setting": "[9]", "value": "> 80 µM (inactive)"}, {"measurement": "EC50", "setting": "[10]", "value": "> 60 µM (not active)"}]}
{"smiles": "COC(=O)/C=C\\C(C#N)(C#N)N=Cc1ccc(OC)cc1", "values": [{"measurement": "CC50", "setting": "Vero", "value": "> 25 µM (active)"}]}
{"smiles": "CCN(CCN(C)C)C(=O)c1ccc2c(c1NCCO)C(=O)c1ccccc1C2=O", "values": [{"measurement": "AC50", "setting": "[11]", "value": "0.0471 µM (active)"}, {"measurement": "EC50", "setting": "Protein RecA", "value": "< 0.018 µM (active)"}, {"measurement": "AC50", "setting": "[12]", "value": "6.06 µM (active)"}]}
{"smiles": "O=[N+]([O-])c1ccc2c(c1)=[N+]([O-])C1(CCCCC1)[N+]=2[O-]", "values": [{"measurement": "IC50", "setting": "[13]", "value": "4.85 µM (active)"}]}
